Values of other authors, collected in US20110110985A1, “FUNCTIONALIZED NANOMATERIALS FOR CHELATION THERAPIES AND SORBENT DIALYSIS OF TOXINS” (priority 2009, published 2011).

Tests used:
[1] = given in the first 24 hours
[2] = given orally to rats
[3] = day of chelation vs one and two days prior to treatment

O=C(O)CN(CCN(CC(=O)O)CC(=O)O)CCN(CC(=O)O)CC(=O)O [Ca-DTPA, diethylenetriaminepentaacetic acid]
effectiveness relative to Zn-DTPA [1]: 10 fold

O=C(O)[C@@H](S)[C@@H](S)C(=O)O [DMSA, meso-2,3-dimercaptosuccinic acid]
change of Ca and Zn in carcass, Fe and Cu in liver, kidney, or brain [2]: did not significantly change

O=C(O)CN(CCN(CC(=O)O)CC(=O)O)CC(=O)O [EDTA, ethylenediamine-tetraacetate]
increase of urinary excretion of Ca [3]: 2 fold
increase of urinary excretion of Zn [3]: 18 fold
